The record followed here is patent publication EP1501797B1, “3-(SUBSTITUTED AMINO)-1H-INDOLE-2-CARBOXYLIC ACID ESTER AND 3-(SUBSTITUTED AMINO)-BENZO[B]THIOPHENE-2-CARBOXYLIC ACID ESTER DERIVATIVES AS INTERLEUKIN-4 GENE EXPRESSION INHIBITORS” (Aventis Pharmaceuticals Inc., priority 2002, dated 2003).

One assay concerns IL-4. Put plainly: In vivo ovalbumin (OVA) mouse model, BALF IL-4. The arrangement: species or system mice. The note with it: for IL-4 pg/ml (± SEM): 30 minutes before OVA challenge, BALF 24 hours, vehicle 1220.4 ± 207.7. As to the method:
This model is designed to determine the ability of a test article to modulate an antigen-induced pulmonary inflammatory cell accumulation in sensitized Balb/c mice from Charles River Laboratories. The mice are given a two week time period from arrival date prior to sensitizations.
On days 0, 7, 14, each animal is injected intraperitoneal (i.p.) with a 0.2 ml Ovalbumin Hydragel solution. Each animal receives 10 µg of Ovalbumin in 0.2 mL of Hydragel, aluminum hydroxide adsorptive gel containing 2% aluminum oxide. […] On day 22, BALF samples are collected from one group of animals and used for cytokine analysis. On day 24, BALF is obtained from a second group of animals and used for differential cell counts.
Test System: Female Babl/cJ mice (Jackson Laboratories), approximately 6-9 weeks old, each weighing approximately 20 to 25 grams, are divided into ten animals per group.
Sensitization Regimen: Mice are sensitized by an intraperitoneal injection of 10 µg ovalbumin (OVA) mixed in 4 mg aluminum hydroxide Al(OH)3 gel suspension in 0.2 ml sterile saline on Days 0, 7 and 14. This suspension is prepared one hour before intraperitoneal injection into each mouse. The animals are ready for OVA challenge on Day 21.
Antigen Challenge: Animals are exposed to aerosolized OVA on day 21 (5% w/v in sterile saline) for 20 minutes. The aerosol is generated by a PARI-Master nebulizer, the outlet of which is connected to a small Plexiglas® chamber containing the animals. Bronchoalveolar lavage is performed on Day 22.
Method of Study Performance: On day 24, 72 hours following aerosol OVA exposure, a separate group of animals are anesthetized with urethane (0.15 - 0.2 gm/kg) and the trachea is exposed and cannulated. Lungs are lavaged with 2 x 0.5 ml Hank's balanced salt solution without Ca^2+ and Mg^2+ (HBSS; Gibco, Grand Island, NY) containing 0.1% EDTA. Lavage fluid is recovered after 30 sec by gentle aspiration and pooled for each animal. Samples are centrifuged at 2000 rpm for 15 minutes at 5°C. After centrifugation, individual supernatants are stored frozen at -80°C. The resulting pellet is resuspended in 0.5 ml of HBSS containing 0.1% EDTA. Total cells and eosinophils are determined using a Technicon Hl and cytoslides, respectively.
Administration of the Test/Control Article: The test article and vehicle dosing preparations are administered once to each anesthetized mouse intranasally using a 200 µl pipette at 30-60 minutes prior to OVA challenge. Each animal receives 50 µl (25 µl/nostril) at each time point. Method of Euthanasia: Urethane overdose at in-life completion.
Compounds administered 30 minutes before aerosol ovalbumin challenge in ova sensitized mice. BALF harvested 24 hours after aerosol challenge. N = 6/group.
Mice (12 animals per group) are sensitized with 0.2 ml of an AlOH3 hydrogel suspension (2% AlOH3) containing 50 µg/ml ovalbumin on days 0, 7 and 14. […] The glucocorticosteroid budesonide (10 mg/kg) is included as a control. All compounds are given in 0.5% methylcellulose/0.2% Tween 80, intranasally (50µl). After the OVA challenge for 24 hours, the mice underwent bronchoalveolar lavage and IL-4 and IL-13 levels in the BALF are determined by ELISA. Another group of mice underwent bronchoalveolar lavage (72 hours after treatment) to determine the number of the eosinophils (*p<0.05, **p<0.01).
Compounds are given (30 mg/kg), intranasally, once, 30 min before OVA challenge unless noted otherwise. BAL fluids are collected 24 hours after OVA challenge and the cytokine levels are measured by standard ELISAs.

A further assay concerns Human primary Th1 cells. Briefly: Human primary Th1 (NYTh1) cells, proliferation (MTS assay). The assay is classed as cell-based. Particulars: data from 8 different experiments combined. As to the method: Briefly, CD4^+CD45RA^+ T cells, isolated from donor peripheral blood mononuclear cells of healthy donors, are educated in the presence of anti-CD3/CD28 antibodies and various growth factors to obtain either a Thl-like or Th2-like phenotypes as determined by the known cytokine profiles of these two cell types.
Generation of Th1/Th2 cells: Twenty four well plates are coated with 300 µL anti-CD3 Ab (10 µg/ml, in PBS 1-2 h at 37°C or overnight at 4°C), and washed two times with PBS. CD4^+/CD45RA^+ cells at a density of 10^6/ml in RPMI, is prepared and added to RPMI medium containing 10% Hyclone serum/ glutamine and 1-2 µg/ml anti-CD28 Ab. The cells are split in two aliquots. […] The degree of polarization is determined by intracellular staining of cells with anti-IFN-γ and anti-IL-4 antibodies from Pharmingen, and using flow cytometry from Becton Dickinson (BD), according to manufacturers description. […] For compound testing, large quantities of Th1 and Th2 cells derived from a given donor (NYTh1 and NYTh2) were expanded and frozen as aliquots in liquid nitrogen. […]
Re-stimulation by allogeneic cells: Human PBMCs, to be used as alloantigens, are isolated from freshly drawn blood by Ficoll separation. […] Cells are counted and diluted to a final concentration of 2 x 10^6/ml in medium containing 10 µg/ml PHA and 200 units/ml IL-2. […]

For the compound `O=C(O)c1[nH]c2ccccc2c1Nc1ccncc1` [Example 28, 3-(4-Pyridinylamino)-1H-indole-2-carboxylic acid], the “IL-4 pg/ml (± SEM)” value in the assay with IL-4 (3 mg/kg intranasal) is 835.1 ± 40.4 pg/mL; in the assay with IL-4 (10 mg/kg intranasal), 414.3 ± 115.5 pg/mL; with IL-4 (30 mg/kg intranasal), 123.9 ± 48.7 pg/mL. Further, in the assay on IL-4 (Mus musculus, mice, intranasally, FIG. 1, read-out: ED50, allergen-induced IL-4 levels in the BALF), the ED50 – broadly, the dose that gives a 50% effect, or the effect in half of the subjects – is about 10 mg/kg. Also, the IC50 – broadly, the midpoint of a concentration-inhibition curve – with Human primary Th1 cells was over 10 µM.
